Laboratory results from patent publication US20260200928A1, “THERAPEUTIC COMPOUNDS” (Sanofi, priority 2022, published 2026).

These compounds were tested against T1, human IL-17A (Homo sapiens, UniProt Q16552) (assay: IL-17A AlphaLISA competition assay (block of IL-17A binding to its receptor IL-17RA)). Details: mean IC50 (n≥2), block of IL-17A binding to IL-17RA.
T1 construct: purchased R&D Systems 7955-IL/CF
T1 sequence (Q16552 24-155): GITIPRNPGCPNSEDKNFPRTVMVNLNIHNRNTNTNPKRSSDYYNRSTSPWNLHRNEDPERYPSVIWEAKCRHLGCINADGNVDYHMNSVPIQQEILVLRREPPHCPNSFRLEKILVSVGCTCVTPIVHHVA
In short: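 Bead-based AlphaLISA competition in PBS with 0.05% Tween-20 and 0.1% BSA: compound first meets human IL-17A (7.5 nM stock) for 30 min, then IL-17RA/Fc (5 nM stock) for 90 min, all at room temperature, before acceptor/donor bead capture. IC50 fitted 4-parameter, DMSO and 4 μM reference inhibitor as controls; at least duplicate.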
C[C@H]1CC[C@H]([C@H](NC(=O)c2ccnn2CCC(O)C(F)(F)F)C(=O)Nc2cc(CN3C[C@@H](C(F)(F)F)NC3=O)ccn2)CC1 (single isomer, unassigned) [Example 68] gave an IC50 of 0.136 µM. For COCC(c1ccnc(NC(=O)[C@@H](NC(=O)C(F)(F)c2ccccc2)[C@H]2CC[C@H](C)CC2)c1)N1C[C@@H](C(F)(F)F)NC1=O (single isomer, unassigned) [Example 150], the IC50 was 0.061 µM. C[C@H]1CC[C@H]([C@@H](NC(=O)c2nonc2C2CC2)C(=O)Nc2cc(C(NC(=O)CCC(F)(F)F)C3CC3)ccn2)CC1 (stereo partly drawn) [Example 235, 4-Cyclopropyl-N-((1S)-2-((4-(cyclopropyl(4,4,4-trifluorobutanamido)-methyl)pyridin-2-yl)amino)-1-((1r,4S)-4-methylcyclohexyl)-2-oxoethyl)-1,2,5-oxadiazole-3-carboxamide] gave an IC50 of 0.066 µM. For CCn1nccc1C(=O)N[C@H](C(=O)Nc1cc([C@@H](COC)N2C[C@@H](C(F)(F)F)NC2=O)ccn1)C1CCC(C(F)(F)F)CC1 (stereo partly drawn) [Example 301, 1-ethyl-N-((1S)-2-((4-((S)-2-methoxy-1-((S)-2-oxo-4-(trifluoromethyl)imidazolidin-1-yl)ethyl)pyridin-2-yl)amino)-2-oxo-1-(4-(trifluoromethyl)-cyclohexyl)ethyl)-1H-pyrazole-5-carboxamide], the IC50 was 0.038 µM. In the case of COC[C@H](c1ccnc(NC(=O)C(NC(=O)c2nonc2C2CC2)C2CCC(C)(F)CC2)c1)N1C[C@@H](C(F)(F)F)NC1=O (single isomer, unassigned) [Example 295], the IC50 is reported as 0.025 µM. Cn1nccc1C(=O)NC(COC(C)(C)C)C(=O)Nc1cc(CN2C[C@@H](C(F)(F)F)NC2=O)ccn1 (stereo partly drawn) [Example 83, N-(3-(tert-butoxy)-1-oxo-1-((4-(((S)-2-oxo-4-(trifluoromethyl)imidazolidin-1-yl)methyl)pyridin-2-yl)amino)propan-2-yl)-1-methyl-1H-pyrazole-5-carboxamide] gave an IC50 of 7.11 µM. Work on CC(C)n1nccc1C(=O)N[C@H](C(=O)Nc1cc(C(NC(=O)CCC(F)(F)F)C2CC2)ccn1)[C@H]1CC[C@H](C)CC1 (stereo partly drawn) [Example 106, N-((1S)-2-((4-(cyclopropyl(4,4,4-trifluorobutanamido)methyl)pyridin-2-yl)amino)-1-((1r,4S)-4-methylcyclohexyl)-2-oxoethyl)-1-isopropyl-1H-pyrazole-5-carboxamide] yielded an IC50 of 0.031 µM. In the case of CC(C)n1nccc1C(=O)N[C@H](C(=O)Nc1cc(C(NC(=O)CCC(F)(F)F)C2CC2)ccn1)C(C1CC1)C1CC1 (single isomer, unassigned) [Example 41], the IC50 is reported as 0.282 µM. For CCn1nccc1C(=O)N[C@H](C(=O)Nc1cc(O[C@H]2C[C@@H](C(F)(F)F)NC2=O)ccn1)[C@H]1CC[C@H](C)CC1 [Example 322, 1-ethyl-N—((S)-1-((1r,4S)-4-methylcyclohexyl)-2-oxo-2-((4-(((3S,5S)-2-oxo-5-(trifluoromethyl)pyrrolidin-3-yl)oxy)pyridin-2-yl)amino)ethyl)-1H-pyrazole-5-carboxamide], the IC50 was 0.821 µM. CCn1nccc1C(=O)N[C@H](C(=O)Nc1cc(C[C@H]2C[C@@H](C(F)(F)F)NC2=O)ccn1)C1CCC(F)(F)CC1 [Example 223, N-((S)-1-(4,4-difluorocyclohexyl)-2-oxo-2-((4-(((3S,5S)-2-oxo-5-(trifluoromethyl)pyrrolidin-3-yl)methyl)pyridin-2-yl)amino)ethyl)-1-ethyl-1H-pyrazole-5-carboxamide] gave an IC50 of 0.084 µM. With COC[C@H](c1ccnc(NC(=O)[C@H](COC(C)(C)C(F)(F)F)NC(=O)c2nocc2C)c1)N1C[C@@H](C(F)(F)F)NC1=O [Example 265, N—((S)-1-((4-((S)-2-methoxy-1-((S)-2-oxo-4-(trifluoromethyl)-imidazolidin-1-yl)ethyl)pyridin-2-yl)amino)-1-oxo-3-((1,1,1-trifluoro-2-methylpropan-2-yl)oxy)propan-2-yl)-4-methylisoxazole-3-carboxamide] the IC50 was 0.045 µM. In the case of “4-ethyl-N-(1-(4-fluorocyclohexyl)-2-((4-((S)-2-methoxy-1-((S)-2-oxo-4-(trifluoromethyl)imidazolidin-1-yl)ethyl)pyridin-2-yl)amino)-2-oxoethyl)-1,2,5-oxadiazole-3-carboxamide [Example 285]”, the IC50 is reported as 0.017 µM. Compound COCC(c1ccnc(NC(=O)C(NC(=O)Cc2cc(C)on2)C2CCC(C)CC2)c1)N1CC(C(F)(F)F)NC1=O (single isomer, unassigned) [Example 253] has an IC50 of 0.106 µM. COCC(NC(=O)CCC(F)(F)F)c1ccnc(NC(=O)[C@@H](NC(=O)c2ccnn2C)C2CCC(F)(F)CC2)c1 (single isomer, unassigned) [Example 143] showed an IC50 of 3.23 µM. In the case of COCC(c1ccnc(NC(=O)[C@@H](NC(=O)c2ccnn2C(C)C)[C@H]2CC[C@H](C)CC2)c1)N1C[C@@H](C(F)(F)F)NC1=O (single isomer, unassigned) [Example 87], the IC50 is reported as 0.013 µM. In the case of CCC[C@H](c1ccnc(NC(=O)C(NC(=O)c2nocc2CC)C2CCC(F)(F)CC2)c1)N1C[C@@H](C(F)(F)F)NC1=O (stereo in doubt) [Example 158, N—((S)-1-(4,4-difluorocyclohexyl)-2-oxo-2-((4-((R)-1-((S)-2-oxo-4-(trifluoromethyl)imidazolidin-1-yl)butyl)pyridin-2-yl)amino)ethyl)-4-ethylisoxazole-3-carboxamide], the IC50 is reported as 0.018 µM. Work on O=C(CCC(F)(F)F)NC(c1ccnc(NC(=O)C(NC(=O)c2nonc2C2CC2)C2CCC(F)(F)CC2)c1)C1CC1 (stereo not drawn) [Example 46, 4-cyclopropyl-N-(2-((4-(cyclopropyl(4,4,4-trifluorobutan-amido)methyl)pyridin-2-yl)amino)-1-(4,4-difluorocyclohexyl)-2-oxoethyl)-1,2,5-oxadiazole-3-carboxamide] yielded an IC50 of 0.612 µM. COCC(c1ccnc(NC(=O)[C@@H](NC(=O)OC(C)(C)C)[C@H]2CC[C@H](C)CC2)c1)N1C[C@@H](C(F)(F)F)NC1=O (single isomer, unassigned) [Example 66, tert-butyl ((S)-2-((4-((R or S)-2-methoxy-1-((S)-2-oxo-4-(trifluoromethyl)imidazolidin-1-yl)ethyl)pyridin-2-yl)amino)-1-((1r,4S)-4-methylcyclohexyl)-2-oxoethyl)carbamate] showed an IC50 of 0.074 µM. COCC(NC(=O)CCC(F)(F)F)c1ccnc(NC(=O)[C@@H](NC(=O)c2ccnn2C(C)C)C2CCC(F)(F)CC2)c1 (single isomer, unassigned) [Example 145] gave an IC50 of 1.36 µM. In the case of COCC(c1ccnc(NC(=O)[C@@H](NC(=O)c2ocnc2C)[C@H]2CC[C@H](C)CC2)c1)N1C[C@@H](C(F)(F)F)NC1=O (single isomer, unassigned) [Example 122], the IC50 is reported as 0.082 µM. With Cn1nccc1C(=O)NC(C(=O)Nc1cc(C(NC(=O)CCC(F)(F)F)C2CC2)ccn1)C1CCC(F)(F)CC1 (stereo not drawn) [Example 47, N-(2-((4-(cyclopropyl(4,4,4-trifluorobutanamido)methyl)pyridin-2-yl)amino)-1-(4,4-difluorocyclohexyl)-2-oxoethyl)-1-methyl-1H-pyrazole-5-carboxamide] the IC50 was 0.63 µM. Cc1nonc1C(=O)N[C@H](C(=O)Nc1cc([C@@H](C)N2C[C@@H](C(F)(F)F)NC2=O)ccn1)[C@H]1CC[C@H](C)CC1 [Example 237, 4-methyl-N—((S)-1-((1r,4S)-4-methylcyclohexyl)-2-oxo-2-((4-((R)-1-((S)-2-oxo-4-(trifluoromethyl)imidazolidin-1-yl)ethyl)pyridin-2-yl)amino)ethyl)-1,2,5-oxadiazole-3-carboxamide] was tested, and the IC50 was 0.022 µM. Work on COCC(c1ccnc(NC(=O)[C@@H](NC(=O)c2nonc2C)[C@H]2CC[C@H](C)CC2)c1)N1C[C@@H](C(F)(F)F)NC1=O (single isomer, unassigned) [Example 75] yielded an IC50 of 0.134 µM. In the case of Cn1nccc1C(=O)NC(C(=O)Nc1cc(Cc2cccc(=O)n2C)ccn1)C1CCC(F)(F)CC1 (stereo not drawn) [Example 37, N-(1-(4,4-difluorocyclohexyl)-2-((4-((1-methyl-6-oxo-1,6-dihydropyridin-2-yl)methyl)pyridin-2-yl)amino)-2-oxoethyl)-1-methyl-1H-pyrazole-5-carboxamide], the IC50 is reported as 25.4 µM. In the case of C[C@H]1CC[C@@H]([C@H](NC(=O)c2nonc2C2CC2)C(=O)Nc2cc(CN3C[C@@H](C(F)(F)F)NC3=O)ccn2)CC1 [Example 263, 4-Cyclopropyl-N—((S)-1-((1s,4R)-4-methylcyclohexyl)-2-oxo-2-((4-(((S)-2-oxo-4-(trifluoromethyl)imidazolidin-1-yl)methyl)pyridin-2-yl)amino)ethyl)-1,2,5-oxadiazole-3-carboxamide], the IC50 is reported as 0.09 µM. CC[C@H](c1ccnc(NC(=O)[C@@H](NC(=O)c2ccnn2C(C)C)C2CCC(F)(F)CC2)c1)N1C[C@@H](C(F)(F)F)NC1=O [Example 215, N-((S)-1-(4,4-difluorocyclohexyl)-2-oxo-2-((4-((R)-1-((S)-2-oxo-4-(trifluoromethyl)imidazolidin-1-yl)propyl)pyridin-2-yl)amino)ethyl)-1-isopropyl-1H-pyrazole-5-carboxamide] gave an IC50 of 0.065 µM. For COC[C@H](c1ccnc(NC(=O)[C@@H](NC(=O)c2ccnn2C(C)C)C2CCC(F)(F)CC2)c1)N1C[C@@H](C(F)(F)F)NC1=O [Example 203, N-((S)-1-(4,4-difluorocyclohexyl)-2-((4-((S)-2-methoxy-1-((S)-2-oxo-4-(trifluoromethyl)imidazolidin-1-yl)ethyl)pyridin-2-yl)amino)-2-oxoethyl)-1-isopropyl-1H-pyrazole-5-carboxamide], the IC50 was 0.09 µM.
